The structures appear in SMILES notation. Several values for one entry are separate records, joined by “and”; a condition that tells them apart may be missing. Equal values may be shown once. Records with an inconclusive call do not appear.

For the assay, the system named is Lewis lung carcinoma i.m., BDF1 mice, T/C %. Put plainly: NCI In Vivo Anticancer Drug Screen. Data for tumor model Lewis Lung Carcinoma (intramuscular) in B6D2F1 (BDF1) mice. A digest of the protocol: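 Antitumour activity is assessed in transplanted-tumour mice. Endpoint is survival or tumour size, normalised to vehicle-dosed controls (T/C).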

Turning to `CC(=O)OC1C(=O)C(O)C(C)OC1O[C@@H]1C[C@@]2(C)[C@@H]3CC=C4[C@@H](C[C@H](O)C(=O)C4(C)C)[C@]3(C)C(=O)C[C@]2(C)[C@H]1[C@@](C)(O)C(=O)/C=C/C(C)(C)O` (stereo partly drawn), the T/C is, setting by setting: (endpoint: mean tumor weight, dose: 0.5 mg/kg/injection, schedule: Q01DX011 (ip), vehicle: saline, higher = larger tumour) 41 % of control; (endpoint: mean tumor weight, dose: 1.0 mg/kg/injection, schedule: Q01DX011 (ip), vehicle: saline, higher = larger tumour) 32 % of control; (endpoint: mean tumor weight, dose: 2.0 mg/kg/injection, schedule: Q01DX011 (ip), vehicle: saline, higher = larger tumour) 41 % of control; (endpoint: median survival time, dose: 0.5 mg/kg/injection, schedule: Q01DX011 (ip), vehicle: saline, higher = longer survival) 113 % of control; (endpoint: median survival time, dose: 1.0 mg/kg/injection, schedule: Q01DX011 (ip), vehicle: saline, higher = longer survival) 89 % of control; (endpoint: median survival time, dose: 2.0 mg/kg/injection, schedule: Q01DX011 (ip), vehicle: saline, higher = longer survival) 91 % of control.

Consider `O=S(=O)(O)SCCNCCCCCC1CCCCC1`, for which the T/C reads like this: (endpoint: mean tumor weight (est.), dose: 0.75 mg/kg/injection, schedule: Q01DX011 (ip), vehicle: saline, higher = larger tumour) 78 % of control; (endpoint: mean tumor weight (est.), dose: 1.5 mg/kg/injection, schedule: Q01DX011 (ip), vehicle: saline, higher = larger tumour) 80 % of control; (endpoint: mean tumor weight (est.), dose: 3.0 mg/kg/injection, schedule: Q01DX011 (ip), vehicle: saline, higher = larger tumour) 88 % of control; (endpoint: mean tumor weight (est.), dose: 6.0 mg/kg/injection, schedule: Q01DX011 (ip), vehicle: saline, higher = larger tumour) 100 % of control; (endpoint: median survival time, dose: 0.75 mg/kg/injection, schedule: Q01DX011 (ip), vehicle: saline, higher = longer survival) 94 % of control; (endpoint: median survival time, dose: 1.5 mg/kg/injection, schedule: Q01DX011 (ip), vehicle: saline, higher = longer survival) 111 % of control. Further, the T/C (endpoint: median survival time, dose: 3.0 mg/kg/injection, schedule: Q01DX011 (ip), vehicle: saline, higher = longer survival) is 107 % of control and the T/C (endpoint: median survival time, dose: 6.0 mg/kg/injection, schedule: Q01DX011 (ip), vehicle: saline, higher = longer survival) is 96 % of control.

On to `CC[n+]1ccc(Nc2ccc(NC(=O)c3ccc(Nc4cc[n+](CC)c5ccc(N)cc45)cc3)cc2)cc1`, for which the T/C by setting is: (endpoint: mean tumor weight, dose: 0.12 mg/kg/injection, schedule: Q01DX011 (ip), vehicle: water, higher = larger tumour) 109 % of control; (endpoint: mean tumor weight, dose: 0.25 mg/kg/injection, schedule: Q01DX011 (ip), vehicle: water, higher = larger tumour) 83 % of control; (endpoint: mean tumor weight, dose: 0.5 mg/kg/injection, schedule: Q01DX011 (ip), vehicle: water, higher = larger tumour) 87 % of control; (endpoint: mean tumor weight, dose: 1.0 mg/kg/injection, schedule: Q01DX011 (ip), vehicle: water, higher = larger tumour) 100 % of control; (endpoint: mean tumor weight, dose: 2.0 mg/kg/injection, schedule: Q01DX011 (ip), vehicle: water, higher = larger tumour) 67 % of control; (endpoint: median survival time, dose: 0.12 mg/kg/injection, schedule: Q01DX011 (ip), vehicle: water, higher = longer survival) 88 % of control. Further, the T/C is 88 % of control (endpoint: median survival time, dose: 0.25 mg/kg/injection, schedule: Q01DX011 (ip), vehicle: water, higher = longer survival); 92 % of control (endpoint: median survival time, dose: 0.5 mg/kg/injection, schedule: Q01DX011 (ip), vehicle: water, higher = longer survival); 87 % of control (endpoint: median survival time, dose: 0.88 mg/kg/injection, schedule: Q01DX007 (sc), vehicle: saline, higher = longer survival); 104 % of control (endpoint: median survival time, dose: 1.0 mg/kg/injection, schedule: Q01DX011 (ip), vehicle: water, higher = longer survival); 110 % of control (endpoint: median survival time, dose: 1.5 mg/kg/injection, schedule: Q01DX007 (sc), vehicle: saline, higher = longer survival); 106 % of control (endpoint: median survival time, dose: 2.0 mg/kg/injection, schedule: Q01DX011 (ip), vehicle: water, higher = longer survival). The T/C was 112 % of control (endpoint: median survival time, dose: 2.5 mg/kg/injection, schedule: Q01DX007 (sc), vehicle: saline, higher = longer survival); 89 % of control (endpoint: median survival time, dose: 4.1 mg/kg/injection, schedule: Q01DX007 (sc), vehicle: saline, higher = longer survival); 66 % of control (endpoint: median survival time, dose: 6.8 mg/kg/injection, schedule: Q01DX007 (sc), vehicle: saline, higher = longer survival).

With `OCN(CO)c1nc(N(CO)CO)nc(N(CO)CO)n1`, the T/C runs as follows: (endpoint: mean tumor weight (est.), dose: 25.0 mg/kg/injection, schedule: Q01DX011 (ip), vehicle: saline with Tween-80, higher = larger tumour) 112 % of control; (endpoint: mean tumor weight (est.), dose: 50.0 mg/kg/injection, schedule: Q01DX011 (ip), vehicle: saline with Tween-80, higher = larger tumour) 85 % of control; (endpoint: mean tumor weight (est.), dose: 100.0 mg/kg/injection, schedule: Q01DX011 (ip), vehicle: saline with Tween-80, higher = larger tumour) 116 % of control; (endpoint: mean tumor weight (est.), dose: 200.0 mg/kg/injection, schedule: Q01DX011 (ip), vehicle: saline with Tween-80, higher = larger tumour) 120 % of control; (endpoint: mean tumor weight (est.), dose: 400.0 mg/kg/injection, schedule: Q01DX011 (ip), vehicle: saline with Tween-80, higher = larger tumour) 73 % of control.

With `CN(Cc1cnc2nc(N)nc(N)c2n1)c1ccc(C(=O)N[C@@H](CCC(=O)O)C(=O)O)cc1`, the T/C was 107 % of control (endpoint: mean tumor weight, dose: 0.23 mg/kg/injection, schedule: Q01DX009 (ip), vehicle: sodium bicarbonate, higher = larger tumour); 86 % of control and 100 % of control and 109 % of control (endpoint: mean tumor weight, dose: 0.31 mg/kg/injection, schedule: Q01DX011 (ip), vehicle: other, higher = larger tumour); 71 % of control (endpoint: mean tumor weight, dose: 0.39 mg/kg/injection, schedule: Q01DX009 (ip), vehicle: sodium bicarbonate, higher = larger tumour); 48 % of control and 69 % of control (endpoint: mean tumor weight, dose: 0.65 mg/kg/injection, schedule: Q01DX009 (ip), vehicle: sodium bicarbonate, higher = larger tumour); 53 % of control and 59 % of control (endpoint: mean tumor weight, dose: 1.08 mg/kg/injection, schedule: Q01DX009 (ip), vehicle: sodium bicarbonate, higher = larger tumour); 40 % of control and 44 % of control (endpoint: mean tumor weight, dose: 1.8 mg/kg/injection, schedule: Q01DX009 (ip), vehicle: sodium bicarbonate, higher = larger tumour). The T/C was 94 % of control (endpoint: mean tumor weight, dose: 2.5 mg/kg/injection, schedule: Q01DX011 (ip), vehicle: other, higher = larger tumour); 57 % of control (endpoint: mean tumor weight, dose: 23.0 mg/kg/injection, schedule: Q04DX003 (ip), vehicle: sodium bicarbonate, higher = larger tumour); 33 % of control (endpoint: mean tumor weight, dose: 39.0 mg/kg/injection, schedule: Q04DX003 (ip), vehicle: sodium bicarbonate, higher = larger tumour); 13 % of control (endpoint: mean tumor weight, dose: 65.0 mg/kg/injection, schedule: Q04DX003 (ip), vehicle: sodium bicarbonate, higher = larger tumour); 123 % of control (endpoint: median survival time, dose: 0.12 mg/kg/injection, schedule: Q01DX011 (ip), vehicle: sodium bicarbonate, higher = longer survival); 90 % of control and 93 % of control (endpoint: median survival time, dose: 0.23 mg/kg/injection, schedule: Q01DX009 (ip), vehicle: sodium bicarbonate, higher = longer survival). The T/C is, setting by setting: (endpoint: median survival time, dose: 0.25 mg/kg/injection, schedule: Q01DX011 (ip), vehicle: sodium bicarbonate, higher = longer survival) 112 % of control and 122 % of control; (endpoint: median survival time, dose: 0.39 mg/kg/injection, schedule: Q01DX009 (ip), vehicle: sodium bicarbonate, higher = longer survival) 118 % of control and 121 % of control; (endpoint: median survival time, dose: 0.5 mg/kg/injection, schedule: Q01DX011 (ip), vehicle: sodium bicarbonate, higher = longer survival) 108 % of control and 109 % of control; (endpoint: median survival time, dose: 1.0 mg/kg/injection, schedule: Q01DX011 (ip), vehicle: sodium bicarbonate, higher = longer survival) 107 % of control; (endpoint: median survival time, dose: 2.0 mg/kg/injection, schedule: Q01DX011 (ip), vehicle: sodium bicarbonate, higher = longer survival) 121 % of control; (endpoint: median survival time, dose: 3.0 mg/kg/injection, schedule: Q01DX009 (ip), vehicle: sodium bicarbonate, higher = longer survival) 32 % of control. Also, the T/C (endpoint: median survival time, dose: 14.0 mg/kg/injection, schedule: Q04DX003 (ip), vehicle: sodium bicarbonate, higher = longer survival) was 89 % of control; the T/C (endpoint: median survival time, dose: 23.0 mg/kg/injection, schedule: Q04DX003 (ip), vehicle: sodium bicarbonate, higher = longer survival) is 90 % of control and 98 % of control; the T/C (endpoint: median survival time, dose: 39.0 mg/kg/injection, schedule: Q04DX003 (ip), vehicle: sodium bicarbonate, higher = longer survival) is 100 % of control and 112 % of control; the T/C (endpoint: median survival time, dose: 65.0 mg/kg/injection, schedule: Q04DX003 (ip), vehicle: sodium bicarbonate, higher = longer survival) was 34 % of control and 112 % of control.

For the compound `COC1=C(N)C(=O)c2nc(-c3nc(C(=O)O)c(C)c(-c4ccc(OC)c(OC)c4O)c3N)ccc2C1=O`, the T/C was 105 % of control (endpoint: median survival time, dose: 0.02 mg/kg/injection, schedule: Q01DX011 (ip), vehicle: other, higher = longer survival); 92 % of control (endpoint: median survival time, dose: 0.02 mg/kg/injection, schedule: Q01DX011 (ip), vehicle: saline, higher = longer survival); 86 % of control (endpoint: median survival time, dose: 0.03 mg/kg/injection, schedule: Q01DX009 (ip), vehicle: saline, higher = longer survival); 96 % of control (endpoint: median survival time, dose: 0.03 mg/kg/injection, schedule: Q01DX011 (ip), vehicle: saline, higher = longer survival); 90 % of control (endpoint: median survival time, dose: 0.05 mg/kg/injection, schedule: Q01DX009 (ip), vehicle: saline, higher = longer survival); 90 % of control (endpoint: median survival time, dose: 0.05 mg/kg/injection, schedule: Q01DX011 (ip), vehicle: other, higher = longer survival). Also, the T/C was 94 % of control (endpoint: median survival time, dose: 0.06 mg/kg/injection, schedule: Q01DX011 (ip), vehicle: saline, higher = longer survival); 100 % of control (endpoint: median survival time, dose: 0.1 mg/kg/injection, schedule: Q01DX011 (ip), vehicle: other, higher = longer survival); 72 % of control (endpoint: median tumor weight (est.), dose: 0.02 mg/kg/injection, schedule: Q01DX011 (ip), vehicle: saline, higher = larger tumour); 81 % of control (endpoint: median tumor weight (est.), dose: 0.03 mg/kg/injection, schedule: Q01DX011 (ip), vehicle: saline, higher = larger tumour); 77 % of control (endpoint: median tumor weight (est.), dose: 0.06 mg/kg/injection, schedule: Q01DX011 (ip), vehicle: saline, higher = larger tumour); 55 % of control (endpoint: median tumor weight (est.), dose: 0.12 mg/kg/injection, schedule: Q01DX011 (ip), vehicle: saline, higher = larger tumour).

(Values after PubChem BioAssay AID272 (DTP/NCI, 2004).)
